In assay [1] the target is T1, mu opioid receptor (MOR) (Homo sapiens, UniProt P35372). Briefly: PathHunter β-arrestin recruitment assay, PAM mode with EC20 endomorphin-1. In kind it is cell-based. In outline: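 Enzyme fragment complementation read-out: β-gal ED fragment fused to receptor, EA fused to β-arrestin, recruitment restoring β-gal activity detected by chemiluminescence. EC50 and percent maximal response derived for each compound.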
A general note: Activated receptors often draw arrestin, which recruitment assays turn into a signal.

The target of assay [2] is T1, mu opioid receptor (MOR). Briefly: Hit Hunter cAMP signaling assay (adenylyl cyclase inhibition), PAM mode with EC20 endomorphin-1. In kind it is cell-based.
Setting [3] is: maximal response for β-arrestin recruitment.
[4] abbreviates: β-arrestin recruitment, read-out: β-arr. EC50.
The mark [5] stands for this setting: cAMP EC50, adenylyl cyclase inhibition.
The mark [6] stands for this setting: maximal response for adenylyl cyclase inhibition.
[7] abbreviates: adenylyl cyclase inhibition, read-out: cAMP EC50.
Where [8] appears, read: maximal response, β-arrestin recruitment.
Setting [9] is: maximal response, adenylyl cyclase inhibition.

We go through 15 molecules from patent US11071731B2, “Allosteric modulators of the mu opioid receptor” (Chiromics, LLC, priority 2017, dated 2021).

T1 sequence (P35372 whole entry, the tested form may be a part): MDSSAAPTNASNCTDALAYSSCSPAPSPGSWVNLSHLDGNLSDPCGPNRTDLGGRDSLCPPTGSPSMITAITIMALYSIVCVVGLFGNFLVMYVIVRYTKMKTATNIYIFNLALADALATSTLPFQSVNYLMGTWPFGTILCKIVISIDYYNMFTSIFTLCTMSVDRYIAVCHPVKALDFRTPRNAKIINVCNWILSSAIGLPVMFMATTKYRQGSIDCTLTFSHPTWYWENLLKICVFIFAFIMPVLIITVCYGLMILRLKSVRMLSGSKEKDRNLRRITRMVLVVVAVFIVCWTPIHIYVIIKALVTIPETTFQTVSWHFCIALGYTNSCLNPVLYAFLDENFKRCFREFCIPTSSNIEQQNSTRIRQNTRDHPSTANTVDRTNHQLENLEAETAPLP

In general, EC50 refers to the midpoint of the concentration-response curve. Consider `Fc1ccc(C(F)(F)F)cc1C1CCCCN1c1nc(Cl)ncc1F` (stereo not shown) [compound 353], for which the “β-arr Max. Resp.” value at mu opioid receptor (MOR) [1] (setting [3]) was “D (D represents a maximal response of < 40%)”. Moreover, the EC50 at mu opioid receptor (MOR) [1] (setting [4]) and on mu opioid receptor (MOR) [2] (setting [5]) was < 700 nM in each case. Also, the “cAMP Max. Resp.” value on mu opioid receptor (MOR) [2] (setting [6]) is “D (D represents a maximal response of < 40%)”.
As to `COc1ncc(N2CCCCC2c2cccc(C(F)(F)F)c2)c(F)n1` (stereo not shown) [compound 295], the “β-arr Max. Resp.” value at mu opioid receptor (MOR) [1] (setting [3]) is listed as “D (D represents a maximal response of < 40%)”. The EC50 on mu opioid receptor (MOR) [1] (setting [4]) and at mu opioid receptor (MOR) [2] (setting [7]) was > 2100 nM in each case. The “cAMP Max. Resp.” value at mu opioid receptor (MOR) [2] (setting [6]) is “D (D represents a maximal response of < 40%)”.
For the molecule `Fc1ccc(N2CCCCC2c2ccc(F)c(Cl)c2)cc1` (stereo not shown) [compound 475], the “β-arr Max. Resp.” value on mu opioid receptor (MOR) [1] (setting [8]) was “F (F represents a maximal response of > 60%)”. In addition, the EC50 on mu opioid receptor (MOR) [1] (setting [4]) and on mu opioid receptor (MOR) [2] (setting [5]) was > 2100 nM in each case. Moreover, at mu opioid receptor (MOR) [2] (setting [9]), the “cAMP Max. Resp.” value is reported as “D (D represents a maximal response of < 40%)”.
For `COc1ncc(F)c(N2CCCCC2c2cccc(C(F)(F)F)c2)n1` (stereo not shown) [compound 271], the “β-arr Max. Resp.” value on mu opioid receptor (MOR) [1] (setting [3]) is recorded as “F (F represents a maximal response of > 60%)”. For the same molecule, the figures for the EC50 at mu opioid receptor (MOR) [1] (setting [4]) and on mu opioid receptor (MOR) [2] (setting [5]) were > 2100 nM and 700 to 2100 nM, respectively. For the same molecule, at mu opioid receptor (MOR) [2] (setting [6]), the “cAMP Max. Resp.” value was “E (E represents a maximal response of 40-60%)”.
For the molecule `Fc1ccc(Cl)cc1CN1CCOCC1c1cccc(C(F)(F)F)n1` (racemic) [Compound 191], the “β-arr Max. Resp.” value on mu opioid receptor (MOR) [1] (setting [3]) is given as “F (F represents a maximal response of > 60%)”. Further, the EC50 on mu opioid receptor (MOR) [1] (setting [4]) and on mu opioid receptor (MOR) [2] (setting [7]) was 700 to 2100 nM throughout. Moreover, at mu opioid receptor (MOR) [2] (setting [6]), the “cAMP Max. Resp.” value is “E (E represents a maximal response of 40-60%)”.
As to `O=S(=O)(c1ccc(Cl)cc1)N1CCCCC1c1cncc(F)c1` (racemic) [compound 82], at mu opioid receptor (MOR) [1] (setting [3]), the “β-arr Max. Resp.” value is reported as “D (D represents a maximal response of < 40%)”. The EC50 at mu opioid receptor (MOR) [1] (setting [4]) and at mu opioid receptor (MOR) [2] (setting [7]) was > 2100 nM each time. The “cAMP Max. Resp.” value on mu opioid receptor (MOR) [2] (setting [6]) is on record as “D (D represents a maximal response of < 40%)”.
Regarding `Fc1ccc(C2C3CCC(C3)N2c2nc(Cl)ncc2F)cc1Br` (stereo not shown) [compound 136], the “β-arr Max. Resp.” value at mu opioid receptor (MOR) [1] (setting [3]) is listed as “F (F represents a maximal response of > 60%)”. For the same molecule, the EC50 at mu opioid receptor (MOR) [1] (setting [4]) and at mu opioid receptor (MOR) [2] (setting [5]) was > 2100 nM throughout. Further, the “cAMP Max. Resp.” value on mu opioid receptor (MOR) [2] (setting [6]) is given as “D (D represents a maximal response of < 40%)”.
On to `Fc1ccc(Cl)cc1CN1CCOCC1c1cccc(C(F)(F)F)c1` (racemic) [Compound 193], for which the “β-arr Max. Resp.” value on mu opioid receptor (MOR) [1] (setting [3]) was “F (F represents a maximal response of > 60%)”. For the same molecule, the values for the EC50 at mu opioid receptor (MOR) [1] (setting [4]) and on mu opioid receptor (MOR) [2] (setting [7]) were 700 to 2100 nM and > 2100 nM, respectively. In addition, on mu opioid receptor (MOR) [2] (setting [6]), the “cAMP Max. Resp.” value is given as “F (F represents a maximal response of > 60%)”.
For the molecule `[2H]C1(c2cccc(C(F)(F)F)c2)C(F)CCCN1Cc1cccc(Cl)c1` (stereo not shown) [compound 204], the “β-arr Max. Resp.” value at mu opioid receptor (MOR) [1] (setting [3]) is reported as “F (F represents a maximal response of > 60%)”. The EC50 on mu opioid receptor (MOR) [1] (setting [4]) and at mu opioid receptor (MOR) [2] (setting [5]) was 700 to 2100 nM each time. Moreover, the “cAMP Max. Resp.” value on mu opioid receptor (MOR) [2] (setting [6]) was “F (F represents a maximal response of > 60%)”.
For `COc1ccc(C2C(C)CCN2S(=O)(=O)c2ccc(Cl)cc2)cc1Br` (mixture of isomers) [Compound 102], the “β-arr Max. Resp.” value on mu opioid receptor (MOR) [1] (setting [3]) is given as “F (F represents a maximal response of > 60%)”. For the same molecule, the EC50 on mu opioid receptor (MOR) [1] (setting [4]) was > 2100 nM; on mu opioid receptor (MOR) [2] (setting [7]) it was 700 to 2100 nM. Moreover, the “cAMP Max. Resp.” value on mu opioid receptor (MOR) [2] (setting [6]) is listed as “E (E represents a maximal response of 40-60%)”.
As to `CC1CCN(S(=O)(=O)c2ccc(Cl)cc2)C1c1ccc(F)c(F)c1` (mixture of isomers) [Compound 97], the “β-arr Max. Resp.” value at mu opioid receptor (MOR) [1] (setting [3]) is given as “F (F represents a maximal response of > 60%)”. For the same molecule, the EC50 on mu opioid receptor (MOR) [1] (setting [4]) and at mu opioid receptor (MOR) [2] (setting [7]) was 700 to 2100 nM throughout. Further, the “cAMP Max. Resp.” value at mu opioid receptor (MOR) [2] (setting [6]) was “D (D represents a maximal response of < 40%)”.
For the molecule `Fc1ccc(CN2CCCCC2c2cccc(C(F)(F)F)n2)cc1Cl` (stereo not shown) [compound 161], the “β-arr Max. Resp.” value at mu opioid receptor (MOR) [1] (setting [3]) is “F (F represents a maximal response of > 60%)”. Moreover, the EC50 on mu opioid receptor (MOR) [1] (setting [4]) and on mu opioid receptor (MOR) [2] (setting [5]) was 700 to 2100 nM throughout. Also, the “cAMP Max. Resp.” value at mu opioid receptor (MOR) [2] (setting [6]) is on record as “E (E represents a maximal response of 40-60%)”.
As to `OC1Cc2ccccc2C1N1CCCCC1c1ccc(F)c(Cl)c1` (stereo not shown) [compound 447], the “β-arr Max. Resp.” value at mu opioid receptor (MOR) [1] (setting [8]) was “D (D represents a maximal response of < 40%)”. For the same molecule, the EC50 at mu opioid receptor (MOR) [1] (setting [4]) and at mu opioid receptor (MOR) [2] (setting [5]) was > 2100 nM each time. In addition, the “cAMP Max. Resp.” value at mu opioid receptor (MOR) [2] (setting [9]) is “D (D represents a maximal response of < 40%)”.
Consider `Fc1cc(C2CCCCCN2c2nc(Cl)ncc2F)cc(C(F)(F)F)c1` (stereo not shown) [compound 252], for which the “β-arr Max. Resp.” value on mu opioid receptor (MOR) [1] (setting [3]) was “F (F represents a maximal response of > 60%)”. Also, the EC50 at mu opioid receptor (MOR) [1] (setting [4]) and on mu opioid receptor (MOR) [2] (setting [7]) was > 2100 nM in each case. Further, the “cAMP Max. Resp.” value at mu opioid receptor (MOR) [2] (setting [6]) was “E (E represents a maximal response of 40-60%)”.
On to `O=S(=O)(c1ccc(Cl)cc1)N1CCCCC1c1cncc(C(F)(F)F)c1` (racemic) [compound 83], for which the “β-arr Max. Resp.” value on mu opioid receptor (MOR) [1] (setting [3]) was “D (D represents a maximal response of < 40%)”. Further, the “β-arrestin Max Response” value on mu opioid receptor (MOR) [1] (β-arrestin recruitment, activity switching by MOR PAMs) was “D (D represents a maximal response of < 40%)”. Moreover, the EC50 was > 2100 nM at mu opioid receptor (MOR) [1] (β-arrestin recruitment, activity switching by MOR PAMs, read-out: β-arrestin EC50); > 2100 nM at mu opioid receptor (MOR) [1] (setting [4]); > 2100 nM on mu opioid receptor (MOR) [2] (adenylyl cyclase inhibition, activity switching by MOR PAMs, read-out: cAMP EC50); > 2100 nM at mu opioid receptor (MOR) [2] (setting [7]). For the same molecule, the “cAMP Max Resp.” value on mu opioid receptor (MOR) [2] (adenylyl cyclase inhibition, activity switching by MOR PAMs) is “D (D represents a maximal response of < 40%)”. At mu opioid receptor (MOR) [2] (setting [6]), the “cAMP Max. Resp.” value is given as “D (D represents a maximal response of < 40%)”.
